The test deals with T1, human muscarinic M1 receptors (Homo sapiens, UniProt P11229).
T1 construct: expressed in transfected cells
T1 sequence (P11229 1-460): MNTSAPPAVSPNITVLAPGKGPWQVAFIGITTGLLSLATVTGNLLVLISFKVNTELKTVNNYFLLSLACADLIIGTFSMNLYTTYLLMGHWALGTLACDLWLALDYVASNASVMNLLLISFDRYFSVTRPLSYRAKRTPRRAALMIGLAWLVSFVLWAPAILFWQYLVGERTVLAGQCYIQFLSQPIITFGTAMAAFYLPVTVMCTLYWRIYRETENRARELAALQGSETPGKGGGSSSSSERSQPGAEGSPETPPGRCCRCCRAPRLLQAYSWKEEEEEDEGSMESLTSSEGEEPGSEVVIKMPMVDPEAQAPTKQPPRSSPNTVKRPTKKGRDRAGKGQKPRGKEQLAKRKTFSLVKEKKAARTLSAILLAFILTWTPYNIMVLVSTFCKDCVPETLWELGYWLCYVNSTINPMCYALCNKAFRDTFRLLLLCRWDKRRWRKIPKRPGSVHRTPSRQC
As to the kind of experiment: FLIPR experiments on M1 receptors (calcium response, CHO-M1 cells). As to conditions: tested for activity; assay and threshold not specified at the place. Format: cell-based. On the procedure: FLIPR Experiments on M1 Receptors to Determine Agonist/Antagonist Potency
Compounds of the invention were characterized in a functional assay to determine their ability to activate the intracellular calcium pathway in CHO cells with stable expression of human muscarinic M1 receptors using FLIPR (Fluorometric Imaging Plate Reader) technology. Briefly, CHO-M1 cells were plated (15,000/well) and allowed to grow overnight at 37 degrees. Media were removed and 30 μL loading buffer (HBSS with 2.5 mM probenicid, 2 μM Fluo-4, 500 μM Brilliant Black, pH 7.4) was added. After incubation at 37 degrees for 90 minutes, 10 μL of the assay buffer (HBSS with 2.5 mM probenecid, pH 7.4) containing test compounds was added to each well on the FLIPR instrument. Calcium response was monitored to determine agonism. […] Calcium response was then monitored again to determine compound's antagonism to acetylcholine. […] Results were imported into ActivityBase data analysis suite (ID Business Solution Inc., Parsippany, N.J.) where the curves were analysed by non-linear curve fitting and the resulting pEC50/fpKi were calculated. The maximum asymptotes of agonist compounds were calculated as percentage of maximum FLIPR response induced by carbamoylcholine chloride added as control on the same compound plates.

Structures are written as SMILES.

As for `Cl.O=C1Cc2ccccc2N1C1CCN(C2CCOCC2)CC1` [1-[1-(Tetrahydro-2H-pyran-4-yl)-4-piperidinyl]-1,3-dihydro-2H-indol-2-one hydrochloride], the activity result was “below the threshold value”.

Values taken from patent US8344000B2, “Compounds which have activity at M1 receptor and their uses in medicine” (Glaxo Group Limited, priority 2007, dated 2013).
